# Source: patent publication US12496361B2, “Imaging compounds for detecting or imaging senescent cells” (University of Dundee, priority 2023, dated 2025)
# What was measured:
# [1] = tested on: Li-Fraumeni-p21^WAF1/Cip1 Tet-ON cells; assay: Detection of senescent cells in cell cultures by fluorescent microscopy; type: cell-based
# Method: (§1) 1-Ethyl-2-((E)-2-((E)-3-((E)-2-(1-ethyl-3,3-dimethylindolin-2-ylidene)ethylidene)-2-((4-(4-((2-methyl-6-((E)-(4-((E)-phenyldiazenyl)naphthalen-1-yl)diazenyl)-2,3-dihydro-1H-perimidin-2-yl)methoxy)-4-oxobutanamido)butyl)amino)cyclohex-1-en-1-yl)vinyl)-3,3-dimethyl-3H-indol-1-ium iodide (15, Scheme 2, Example 2) was used to detect senescent cells in cell spreads using fluorescent microscopy (FIG. 1).
# (§2) Li-Fraumeni-p21^WAF1/Cip1 or HBEC-CDC6 Tet-ON cellular systems were grown on cover slips and collected before and after the mentioned respective treatments for induction of senescence. Cover slips were treated as follows: • a) Cell spreads, immobilized preferably on a microscopy coverslip, are fixed in 4% paraformaldehyde (PFA) for 10 minutes at 4° C.; • b) Wash with PBS; • c) Cell membrane permeabilization: Immerse coverslips in solution of 0.3% Triton-X 100 diluted in PBS for 15 minutes; • d) Wash with PBS; • e) Apply compound of formula I on cells for 10 minutes in dark conditions; • f) Wash 3 times with fresh wash buffer [PBS/DMSO (2.5%)/TWEEN-20 (2.5%)]; • g) Incubate cells with 0.3% Triton-X 100 diluted in PBS for 3 minutes; • h) Wash with PBS; • i) Apply DAPI 1/5000 for 5 minutes in dark condition; • j) Rinse samples with dH2O for 30 seconds; • k) Cover section using a mounting medium for immunofluorescence.
# HBEC CDC6 Tet-ON cells [2] = assay: as above; type: cell-based
# Method: as §1, §2
# [3] = tested on: senescent cells in human tissue sections (irradiated laryngeal, chemotherapy-treated breast, aged liver); assay: Detection of senescent cells in tissue sections by fluorescent microscopy, human clinical settings; conditions: chemotherapy-treated breast tissues, liver specimens from aged individuals versus respective controls, FFPE sections
# Source text: as §1, with “tissue sections by” for “cell spreads using”, “microscopy.” for “microscopy (FIG. 1).”
# (§3) Tissue sections were obtained from paraffin embedded, formalin fixed of: (A) irradiated human laryngeal tumors, (B) chemotherapy-treated breast tissues, (C) liver specimens from aged versus young individuals, (D) K-ras^V12 induced lung adenomas, (E) Palbociclib-treated human melanoma xenografts, and (F) Bleomycin-induced lung fibrosis mouse model, with established presence of senescent cells. Subsequently, they were immobilized on glass microscopy slides by standard procedures and processed as follows: • i. Section deparaffinization through a 30 minutes incubation at 60° C., followed by washing in xylene for 15 minutes at room temperature. • ii. Gradual rehydration of biopsy material, usually fixed tissues, in solutions of descending concentration of ethanol (100%, 96%, 80%, 70%, 50% v/v) for 5 minutes each step and finally in Phosphate-buffered saline (PBS) buffering solution; • iii. Antigen retrieval by heating in citrate acid solution 10 mM, pH=6. […]
# [4] = tested on: senescent cells in tissue sections of murine models (K-ras^V12-induced lung adenomas, palbociclib-treated human melanoma xenografts, bleomycin-induced lung …); assay: Detection of senescent cells in tissue sections by fluorescent microscopy, murine models; conditions: bleomycin-treated lungs
# Source text: as §1, with “tissue sections by” for “cell spreads using”, “microscopy.” for “microscopy (FIG. 1).”
# as §3
# [5] = tested on: Li-Fraumeni-p21^WAF1/Cip1 Tet-ON cells; assay: Detection by flow cytometry of senescent cells in cell culture; type: cell-based; conditions: with or without Doxycycline; anti-Ki67-Pacific blue and anti-p16^INK4A-APC; 3 independent experiments
# Method: as §1, with “senescent cultured” for “senescent”, “by flow cytometry.” for “in cell spreads using fluorescent microscopy (FIG. 1).”
# (§4) Li-Fraumeni-p21^WAF1/Cip1 or HBEC-CDC6 Tet-ON cellular systems were grown in culture without or with Doxycyclin to induce senescence. Subsequently cells were treated and assessed as follows: • 1. Harvest cells from culture. • 2. Centrifuge at 1200 rpm for 5 min at RT. • 3. Wash ×1 in 5 ml PBS at RT. • 4. Resuspend cell pellet in 4% PFA and incubate them for 15 min in RT (fixation) • 5. Centrifuge at 1200 rpm for 5 min at RT. • 6. Resuspend cell pellet in 0.3% Triton-X/PBS and incubate it for 15 min at RT. • 7. Wash ×1 in 2 ml PBS at RT • 8. Centrifuge at 1200 rpm for 5 min at RT. • 9. Incubate samples with 100 μl of GLF16 for 8 min under gently shaking in dark condition • 10. Add 2 ml of wash buffer [PBS/DMSO (2.5%)/TWEEN-20 (2.5%)] and centrifuge at 1200 rpm for 5 min at RT (×2) • 11. Incubate with primary-conjugated antibody/ies for 20 min RT • 12. Centrifuge at 1200 rpm for 5 min at RT (×2) • 13. Apply flow cytometry buffer (PBS/5% FBS)
# HBEC CDC6 Tet-ON cells [6] = assay: as above; type: cell-based; conditions: with or without Doxycycline; anti-Ki67-Pacific blue only (HBEC cells do not express p16^INK4A)
# Method: as §1, with “senescent cultured” for “senescent”, “by flow cytometry.” for “in cell spreads using fluorescent microscopy (FIG. 1).”
# as §4
compound,measurement,setting,value
"CCN1/C(=C/C=C2\CCCC(/C=C/C3=[N+](CC)c4ccccc4C3(C)C)=C2NCCCCNC(=O)CCC(=O)OCC2(C)Nc3cccc4c(/N=N/c5ccc(/N=N/c6ccccc6)c6ccccc56)ccc(c34)N2)C(C)(C)c2ccccc21 (stereo not shown) [GLF16, 1-ethyl-2-((E)-2-((E)-3-((E)-2-(1-ethyl-3,3-dimethylindolin-2-ylidene)ethylidene)-2-((4-(4-((2-methyl-6-((E)-(4-((E)-phenyldiazenyl)naphthalen-1-yl)diazenyl)-2,3-dihydro-1H-perimidin-2-yl)methoxy)-4-oxobutanamido)butyl)amino)cyclohex-1-en-1-yl)vinyl)-3,3-dimethyl-3H-indol-1-ium iodide]",specificity: co-staining with p16^INK4A and Ki67,"[1]; (+) Doxycycline, FIG. 2 panels B, C",concordant staining presence of the senescence associated factors
same,co-staining with the proliferative marker Ki67,[1]; FIG. 2C,inverse relationship between GLF16 and Ki67 positivity
same,GLF16 staining signal,"[1]; cells treated or not with Doxycycline for 6-8 days, fixed, permeabilized, confocal microscope",intense cytoplasmic signal (corresponding to lipofuscin aggregates) abundant in senescent cells and entirely absent in untreated ones
same,specificity: co-staining with p21^WAF1/Cip and Ki67,"HBEC CDC6 Tet-ON cells [2]; (+) Doxycycline, FIG. 2 panels F, G",concordant staining presence of the senescence associated factors
same,staining of senescent cells,"HBEC CDC6 Tet-ON cells [2]; FIG. 2 panel E, (-) Doxycycline as negative control",successful application
same,GLF16-positive cells in tissue,[3],abundant in GLF16-positive cells while in respective controls these positive cells were totally absent
same,"concurrent staining with Ki67, p21^WAF1/Cip1 and p16^INK4A","[4]; FIG. 3 G-I, tissue per panel not stated except H",coincided with p16^INKA4 or p21^WAF1/Cip1 but not with Ki67
same,GLF16 (lipofuscin) positive macrophages,[4]; FIG. 3H,positive macrophages in bleomycin-treated lungs are also evident
same,co-detection of GLF16 with senescence markers in gated GLF16 (+) and (-) cells,[5],co-detection of GLF16 and senescence markers (p16^INK4A and absence of Ki67) in the senescent population (induced cells)
same,co-detection of GLF16 with senescence markers in gated GLF16 (+) and (-) cells,HBEC CDC6 Tet-ON cells [6],co-detection of GLF16 and senescence markers (p16^INK4A and absence of Ki67) in the senescent population (induced cells)
